As usually defined, the EC50 is the concentration giving half of the maximal effect. The IC50 is the concentration needed to halve the response being measured. The low end stands for inhibition by little substance, the high end for a need for much substance. What is called CC50 is the concentration that lowers cell viability or growth by half.

11 molecules from patent publication US20250144220A1, “CONJUGATE FOR PREVENTING AND TREATING VIRAL INFECTIONS AND USE THEREOF” (priority 2021, published 2025) can be followed below.

The subject of one data set is IFV B/Lee/40. Put plainly: microbe, parasite or virus in culture. It counts as cell-based. Conditions: unidentified influenza virus, 120 h.
Data set [1] concerns IFV A/California/2/2014 (H3N2). Put plainly: microbe, parasite or virus in culture. The format is cell-based. To be noted: Influenza A virus, 120 h.
In data set [2] the target is Influenza A H1N1 (A/California/04/2009) Neuraminidase/NA (Influenza A virus (A/California/04/2009(H1N1)), UniProt C3W5S3). Put plainly: biochemical. To be noted: neuraminidase 1 U/ml.
Another data set relates to H1N1(A/PR/8/34) virus. In words: microbe, parasite or virus in culture. Conditions: Influenza A virus, 96 h. The format is cell-based.
The nature of a further data set: in vitro. To be noted: dog. The format is cell-based. How it is done: • Toxicity of the tested compounds to MDCK cells was quantified by MDCK cell lines. […] The cell control without compound was also configured. The cells were incubated in an incubator for 4 days. • 4) 50 μL of Cell-titer Glo was added to each well, and the chemiluminescence was detected by a Microplate Reader. Inhibition rate=(average value of cell control−value of tested compounds)/average value of cell control […]

The subject of data set [3] is A/Chicken/Jiangsu/k0402/2010 (H5N1). In words: microbe, parasite or virus in culture. Conditions: Influenza A virus, H5N1, MDCK, 72 h. It counts as cell-based.
Data set [4] concerns A/Chicken/Eastern/JTC11/2013 (H7N9). In words: microbe, parasite or virus in culture. The format is cell-based. Conditions: Influenza A virus, H7N9, MDCK, 72 h.
Data set [5] relates to B/Jiangsu/YZ08/2018 (Yamagata). Put plainly: microbe, parasite or virus in culture. The format is cell-based. To be noted: unidentified influenza virus, MDCK cells, 72 hours.
The subject of the next data set is B/YZ29/2019 (Victoria). In words: microbe, parasite or virus in culture. The format is cell-based. Conditions: unidentified influenza virus, MDCK cells, 72 hours.
In the next data set the test system is H1N1(A/PR/8/34). Put plainly: microbe, parasite or virus in culture. It counts as cell-based, influenza virus H1N1(A/PR/8/34). To be noted: Influenza A virus, MDCK, 96 h.
Where [6] appears, read: MDCK cells, H1N1(A/PR/8/34), 4 days, Cell-titer Glo.
The mark [7] stands for this setting: IFV B/Lee/40, MDCK cells, 5 days, read-out: EC50.
[8] abbreviates: IFV A/California/2/2014 (H3N2), MDCK cells, 5 days, read-out: EC50.

Like-named read-outs stand apart in the source and are kept apart here.

`O=C1c2c(O)c(=O)ccn2N([C@@H]2c3ccccc3SCc3c2ccc(F)c3F)[C@@H]2COCCN12` [Baloxavir, baloxivir]: the EC50 stood at 0.00147 µM in the data set on IFV B/Lee/40 (MDCK) and 0.00039 µM in data set [1] (H3N2, MDCK).

`C#CCOCCOCCOCCOCCOC(=O)N(CCOCCN(C)C(=O)O[C@@H]([C@@H]1OC(C(=O)O)=C[C@H](NC(=N)N)[C@H]1NC(C)=O)[C@H](O)CO)CCOCCN(C)C(=O)O[C@@H]([C@@H]1OC(C(=O)O)=C[C@H](NC(=N)N)[C@H]1NC(C)=O)[C@H](O)CO` [C-Inter-1] returned a half-inhibitory concentration (IC50) in [2] of 0.0104 µM. A half-maximal response in the data set on H1N1(A/PR/8/34) virus (setting [6]) (EC50) required 0.00028 µM. Besides, in the data set “in vitro”, the CC50 at 4 days is above 100 µM.

In turn, `C#CCOCCOCCOCCOCCNC(=O)N(CCOCCN(C)C(=O)O[C@@H]([C@@H]1OC(C(=O)O)=C[C@H](NC(=N)N)[C@H]1NC(C)=O)[C@H](O)CO)CCOCCN(C)C(=O)O[C@@H]([C@@H]1OC(C(=O)O)=C[C@H](NC(=N)N)[C@H]1NC(C)=O)[C@H](O)CO` [C-Inter-2] displayed a concentration for half-maximal inhibition (IC50) in data set [2] of 0.0142 µM. For the same molecule, the EC50 in the data set with H1N1(A/PR/8/34) virus (setting [6]) turned out to be 0.00042 µM. Moreover, the CC50 at 4 days in the data set “in vitro” was above 100 µM.

Consider `C#CCOCCOCCOCCN1CCC(N(CCOCCN(C)C(=O)O[C@@H]([C@@H]2OC(C(=O)O)=C[C@H](NC(=N)N)[C@H]2NC(C)=O)[C@H](O)CO)CCOCCN(C)C(=O)O[C@@H]([C@@H]2OC(C(=O)O)=C[C@H](NC(=N)N)[C@H]2NC(C)=O)[C@H](O)CO)CC1` [C-Inter-3], for which the 50% inhibitory concentration (IC50) in [2] was determined as 0.0213 µM. In the data set with H1N1(A/PR/8/34) virus (setting [6]), this molecule showed an EC50 of 0.00039 µM. Further, the CC50 at 4 days in “in vitro” is above 100 µM.

In turn, `C#CCOCCOCCOCCN1CCN(C(=O)N(CCOCCN(C)C(=O)O[C@@H]([C@@H]2OC(C(=O)O)=C[C@H](NC(=N)N)[C@H]2NC(C)=O)[C@H](O)CO)CCOCCN(C)C(=O)O[C@@H]([C@@H]2OC(C(=O)O)=C[C@H](NC(=N)N)[C@H]2NC(C)=O)[C@H](O)CO)CC1` [C-Inter-4] had an IC50 in data set [2] of 0.0487 µM.

The molecule `C#CCOCCOCCOCCOC1CCN(C(=O)N(CCOCCN(C)C(=O)O[C@@H]([C@@H]2OC(C(=O)O)=C[C@H](NC(=N)N)[C@H]2NC(C)=O)[C@H](O)CO)CCOCCN(C)C(=O)O[C@@H]([C@@H]2OC(C(=O)O)=C[C@H](NC(=N)N)[C@H]2NC(C)=O)[C@H](O)CO)CC1` [C-Inter-5] displayed an IC50 in [2] of 0.037 µM. Also, it took 0.00045 µM to reach a half-maximal effect in the data set on H1N1(A/PR/8/34) virus (setting [6]) (EC50). Moreover, the CC50 at 4 days in the data set “in vitro” was above 100 µM.

For `C#CCOCCOCCOCCOCCN(C)C(=O)N(CCOCCN(C)C(=O)O[C@@H]([C@@H]1OC(C(=O)O)=C[C@H](NC(=N)N)[C@H]1NC(C)=O)[C@H](O)CO)CCOCCN(C)C(=O)O[C@@H]([C@@H]1OC(C(=O)O)=C[C@H](NC(=N)N)[C@H]1NC(C)=O)[C@H](O)CO` [C-Inter-6], in data set [2], the IC50 came to 0.0119 µM. A half-maximal response in the data set with H1N1(A/PR/8/34) virus (setting [6]) (EC50) required 0.00025 µM. In the data set “in vitro”, this molecule showed a CC50 at 4 days above 100 µM.

`C#CCOCCOCCOCCOCCNS(=O)(=O)N(CCOCCN(C)C(=O)O[C@@H]([C@@H]1OC(C(=O)O)=C[C@H](NC(=N)N)[C@H]1NC(C)=O)[C@H](O)CO)CCOCCN(C)C(=O)O[C@@H]([C@@H]1OC(C(=O)O)=C[C@H](NC(=N)N)[C@H]1NC(C)=O)[C@H](O)CO` [C-Inter-7] gave an IC50 in [2] of 0.00764 µM. The molecule also showed an EC50 in the data set on H1N1(A/PR/8/34) virus (setting [6]) of 0.00057 µM. In addition, the half-maximal cytotoxic concentration (CC50) at 4 days in “in vitro” was above 100 µM.

In data set [2], `C#CCOCCOCCOCCNC(=N)N(CCOCCN(C)C(=O)O[C@@H]([C@@H]1OC(C(=O)O)=C[C@H](NC(=N)N)[C@H]1NC(C)=O)[C@H](O)CO)CCOCCN(C)C(=O)O[C@@H]([C@@H]1OC(C(=O)O)=C[C@H](NC(=N)N)[C@H]1NC(C)=O)[C@H](O)CO` [C-Inter-10] came in with an IC50 of 0.0108 µM. The molecule further returned a concentration for a half-maximal effect (EC50) in the data set on H1N1(A/PR/8/34) virus (setting [6]) of 0.00039 µM. Moreover, in “in vitro”, the CC50 at 4 days was above 100 µM.

As for `CCC(CC)O[C@@H]1C=C(C(=O)O)C[C@H](N)[C@H]1NC(C)=O` [Oseltamivir acid], the EC50 in data set [3] is 0.21 µM; in data set [4], 0.54 µM; in [5], 0.78 µM; in the data set on B/YZ29/2019 (Victoria), 0.71 µM; with IFV B/Lee/40 (setting [7]), 0.801 µM; in data set [1] (setting [8]), above 100 µM.

Consider `CC(=O)N[C@H]1[C@H]([C@H](O)[C@H](O)CO)OC(C(=O)O)=C[C@@H]1N=C(N)N` [Zanamivir, zanamivir, reference compound], for which the EC50 is 0.0397 µM in the data set on H1N1(A/PR/8/34) virus (MDCK); 0.0457 µM in the data set with H1N1(A/PR/8/34); 0.09 µM in data set [5]; 0.059 µM in the data set with B/YZ29/2019 (Victoria); 0.0575 µM with IFV B/Lee/40 (setting [7]); above 10 µM in data set [1] (setting [8]). The 50% cytotoxic concentration (CC50) in the data set “in vitro” was above 100 µM.
